Here are results for 17 compounds from patent US6521630B1, “Tetrahydroquinazoline-2,4-diones and therapeutic uses thereof” (Pfizer Inc., priority 1999, dated 2003).

The melting point is the temperature, or range, at which the solid turns liquid.

Structures can show the parent of a compound that is named as a salt.

Compound `Cc1cccc2[nH]c(=O)n(CCCN3CC=C(c4cccc(C(F)(F)F)c4)CC3)c(=O)c12` (as salt: maleate) gave a melting point of 158 to 160 °C.

`O=c1[nH]c2cccc(Cl)c2c(=O)n1CCCN1CC=C(c2ccc(Cl)cc2)CC1` (as salt: maleate) returned a melting point of 190 to 194 °C.

`Cc1ccc2c(=O)n(CCCN3CC=C(c4ccc(Cl)cc4)CC3)c(=O)[nH]c2c1` (as salt: maleate) registered a melting point of 199 to 201 °C.

On to `O=c1[nH]c2cc([N+](=O)[O-])ccc2c(=O)n1CCCN1CC=C(c2ccc(Cl)cc2)CC1` (as salt: maleate), for which the melting point was 210 to 212 °C.

In turn, `Cc1cccc2c(=O)n(CCCN3CC=C(c4ccc(Cl)cc4)CC3)c(=O)[nH]c12` (as salt: maleate) displayed a melting point of 215 to 217 °C.

`O=c1[nH]c2c(Cl)cc(Cl)cc2c(=O)n1CCCN1CC=C(c2ccc(Cl)cc2)CC1` (as salt: maleate) returned a melting point of 197 to 199 °C.

For the compound `Cc1cc(Br)c2[nH]c(=O)n(CCCN3CC=C(c4ccc(Cl)cc4)CC3)c(=O)c2c1` (as salt: maleate), the melting point lay in the range of 212 to 214 °C.

For the compound `Cc1c(Cl)ccc2c(=O)n(CCCN3CC=C(c4ccc(Cl)cc4)CC3)c(=O)[nH]c12` (as salt: maleate), the melting point fell in the range of 208 to 210 °C.

In the case of `Cc1cccc2[nH]c(=O)n(CCCN3CC=C(c4ccc(Cl)cc4)CC3)c(=O)c12` (as salt: maleate), the melting point was in the range of 175 to 178 °C.

`Cc1ccc(C)c2c(=O)n(CCCN3CC=C(c4ccc(Cl)cc4)CC3)c(=O)[nH]c12` (as salt: maleate) returned a melting point of 212 to 220 °C.

As to `O=c1[nH]c2c(O)cccc2c(=O)n1CCCN1CC=C(c2ccc(Cl)cc2)CC1` (as salt: hydrobromid), the melting point lay in the range of 284 to 286 °C.

Compound `O=c1[nH]c2ccc([N+](=O)[O-])cc2c(=O)n1CCCN1CC=C(c2ccc(Cl)cc2)CC1` (as salt: maleate) had a melting point of 205 to 207 °C.

As to `O=c1[nH]c2cc(F)ccc2c(=O)n1CCCN1CC=C(c2ccc(Cl)cc2)CC1` (as salt: maleate), the melting point lay in the range of 197 to 198 °C.

In turn, `O=c1[nH]c2ccc(Cl)cc2c(=O)n1CCCN1CC=C(c2ccc(Cl)cc2)CC1` (as salt: maleate) yielded a melting point of 197 to 198 °C.

Regarding `O=c1[nH]c2cc(Cl)ccc2c(=O)n1CCCN1CC=C(c2ccc(Cl)cc2)CC1` (as salt: maleate), the melting point lay within 225 to 227 °C.

The compound `O=c1[nH]c2c(Cl)cccc2c(=O)n1CCCN1CC=C(c2cccc(C(F)(F)F)c2)CC1` (as salt: maleate) yielded a melting point of 205 to 210 °C.

Regarding `Cc1ccc(C2=CCN(CCCn3c(=O)[nH]c4cccc(C)c4c3=O)CC2)cc1` (as salt: maleate), the melting point was in the range of 165 to 170 °C.
